Reference: patent US10245261B2, “Substituted indol-5-ol derivatives and their therapeutic applications” (NantBioScience, Inc., priority 2013, dated 2019)

Columns and labels:
Experiment in all cases: KinaseProfiler kinase assay
Format in all cases: biochemical
MRCKα(h) = MRCKα(h) (Homo sapiens, UniProt Q5VT25)
In short: (§1)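 Using a filter-binding 33P format, reactions initiated by MgATP addition proceeded 40 min at room temperature before a 3% phosphoric acid stop. Filtermats were washed three times in 50 mM phosphoric acid and once in methanol, dried and counted.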

Mer(h) = Mer(h) (Homo sapiens, UniProt Q12866)
In short: as §1

LIMK1(h) = LIMK1(h) (Homo sapiens, UniProt P53667)
LIMK1(h), sequence (P53667 whole entry): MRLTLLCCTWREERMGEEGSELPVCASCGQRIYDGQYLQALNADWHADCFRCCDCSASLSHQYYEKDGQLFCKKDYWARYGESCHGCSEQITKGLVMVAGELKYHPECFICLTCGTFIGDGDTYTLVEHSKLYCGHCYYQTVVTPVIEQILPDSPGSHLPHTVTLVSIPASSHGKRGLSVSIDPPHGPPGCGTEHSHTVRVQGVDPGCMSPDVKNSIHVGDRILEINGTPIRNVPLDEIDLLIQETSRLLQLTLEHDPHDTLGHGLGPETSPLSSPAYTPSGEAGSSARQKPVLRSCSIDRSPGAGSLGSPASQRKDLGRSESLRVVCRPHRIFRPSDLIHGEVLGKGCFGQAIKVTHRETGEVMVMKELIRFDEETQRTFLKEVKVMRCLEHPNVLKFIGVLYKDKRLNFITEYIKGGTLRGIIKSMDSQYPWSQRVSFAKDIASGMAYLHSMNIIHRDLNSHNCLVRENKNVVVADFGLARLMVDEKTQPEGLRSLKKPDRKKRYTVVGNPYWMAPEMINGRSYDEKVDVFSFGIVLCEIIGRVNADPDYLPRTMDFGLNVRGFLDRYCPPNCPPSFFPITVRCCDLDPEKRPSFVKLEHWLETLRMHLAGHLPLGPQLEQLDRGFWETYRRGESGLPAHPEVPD
In short: as §1

PhKγ2(h) = PhKγ2(h) (Homo sapiens, UniProt P15735)
PhKγ2(h), sequence (P15735 whole entry): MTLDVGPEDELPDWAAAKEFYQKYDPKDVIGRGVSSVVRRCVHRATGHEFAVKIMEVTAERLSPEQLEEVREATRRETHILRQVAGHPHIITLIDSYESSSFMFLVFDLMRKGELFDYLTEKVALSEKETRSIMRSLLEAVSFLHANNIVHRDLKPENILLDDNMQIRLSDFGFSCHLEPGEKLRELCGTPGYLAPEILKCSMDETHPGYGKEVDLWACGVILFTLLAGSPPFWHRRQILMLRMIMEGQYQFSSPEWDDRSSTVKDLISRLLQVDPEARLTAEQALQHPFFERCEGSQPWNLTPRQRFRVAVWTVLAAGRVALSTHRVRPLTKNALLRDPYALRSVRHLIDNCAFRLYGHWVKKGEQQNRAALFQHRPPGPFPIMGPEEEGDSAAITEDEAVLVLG
In short: as §1

Met(D1246H)(h) = Met(D1246H)(h) (Homo sapiens, UniProt P08581, D1228H)
In short: as §1

GRK7(h) = GRK7(h) (Homo sapiens, UniProt Q8WTQ7)
GRK7(h), sequence (Q8WTQ7 whole entry): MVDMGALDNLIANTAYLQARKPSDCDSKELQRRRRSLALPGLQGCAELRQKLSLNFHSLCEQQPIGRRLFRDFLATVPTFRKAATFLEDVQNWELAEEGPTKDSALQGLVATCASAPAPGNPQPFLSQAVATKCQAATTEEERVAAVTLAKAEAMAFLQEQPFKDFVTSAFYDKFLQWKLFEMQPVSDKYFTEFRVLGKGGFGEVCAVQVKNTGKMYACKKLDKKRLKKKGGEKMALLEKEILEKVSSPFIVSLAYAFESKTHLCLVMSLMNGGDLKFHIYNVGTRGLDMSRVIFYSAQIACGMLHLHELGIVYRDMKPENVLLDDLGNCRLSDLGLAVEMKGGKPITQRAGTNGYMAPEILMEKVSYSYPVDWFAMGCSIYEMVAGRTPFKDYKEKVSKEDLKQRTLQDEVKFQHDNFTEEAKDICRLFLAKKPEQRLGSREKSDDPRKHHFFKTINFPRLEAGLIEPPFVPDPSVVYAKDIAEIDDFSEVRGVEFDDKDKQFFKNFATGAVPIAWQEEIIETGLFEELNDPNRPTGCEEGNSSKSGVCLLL
In short: as §1

PRK2(h) = PRK2(h) (Homo sapiens, UniProt Q16513)
PRK2(h), sequence (Q16513 whole entry): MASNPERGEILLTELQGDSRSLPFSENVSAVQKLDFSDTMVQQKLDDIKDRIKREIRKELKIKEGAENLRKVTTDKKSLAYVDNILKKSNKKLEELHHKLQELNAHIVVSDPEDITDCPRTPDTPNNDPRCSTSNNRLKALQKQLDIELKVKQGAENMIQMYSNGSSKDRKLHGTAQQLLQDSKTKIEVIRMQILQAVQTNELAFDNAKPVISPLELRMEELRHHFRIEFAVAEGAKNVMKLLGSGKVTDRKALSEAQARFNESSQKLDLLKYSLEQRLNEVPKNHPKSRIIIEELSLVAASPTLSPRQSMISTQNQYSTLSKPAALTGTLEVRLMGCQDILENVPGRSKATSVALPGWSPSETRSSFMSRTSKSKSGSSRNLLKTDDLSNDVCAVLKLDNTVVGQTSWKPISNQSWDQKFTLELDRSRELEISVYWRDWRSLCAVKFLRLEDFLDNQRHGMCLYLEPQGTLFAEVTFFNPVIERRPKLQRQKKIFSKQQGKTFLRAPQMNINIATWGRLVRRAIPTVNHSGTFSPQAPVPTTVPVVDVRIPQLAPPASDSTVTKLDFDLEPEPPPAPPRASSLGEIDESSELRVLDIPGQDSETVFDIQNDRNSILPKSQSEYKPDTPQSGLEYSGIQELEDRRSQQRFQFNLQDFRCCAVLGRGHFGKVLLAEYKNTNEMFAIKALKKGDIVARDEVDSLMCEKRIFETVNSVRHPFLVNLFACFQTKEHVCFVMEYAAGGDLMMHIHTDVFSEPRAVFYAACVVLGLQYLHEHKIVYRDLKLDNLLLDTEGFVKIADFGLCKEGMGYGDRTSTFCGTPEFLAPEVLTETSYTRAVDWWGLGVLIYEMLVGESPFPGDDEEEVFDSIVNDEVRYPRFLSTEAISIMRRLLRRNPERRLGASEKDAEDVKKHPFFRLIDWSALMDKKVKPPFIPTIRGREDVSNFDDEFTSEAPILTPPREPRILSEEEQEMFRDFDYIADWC
In short: as §1

DAPK2(h) = DAPK2(h) (Homo sapiens, UniProt Q9UIK4)
In short: as §1

PrKX(h) = PrKX(h) (Homo sapiens, UniProt P51817)
In short: as §1

ZIPK(h) = ZIPK(h) (Homo sapiens, UniProt O43293)
In short: as §1

PKG1β(h) = PKG1β(h) (Homo sapiens, UniProt Q13976)
In short: as §1

SGK2(h) = SGK2(h) (Homo sapiens, UniProt Q9HBY8)
In short: as §1

PKCγ(h) = PKCγ(h) (Homo sapiens, UniProt P05129)
In short: as §1

Fer(h) = Fer(h) (Homo sapiens, UniProt P16591)
In short: as §1

NEK11(h) = NEK11(h) (Homo sapiens, UniProt Q8NG66)
In short: as §1

Tie2(R849W)(h) = Tie2(R849W)(h) (Homo sapiens, UniProt Q02763, R849W)
In short: as §1

Met(Y1248H)(h) = Met(Y1248H)(h) (Homo sapiens, UniProt P08581, Y1230H)
In short: as §1

SGK3(h) = SGK3(h) (Homo sapiens, UniProt Q96BR1)
In short: as §1

PKG1α(h) = PKG1α(h) (Homo sapiens, UniProt Q13976)
PKG1α(h), sequence (Q13976 whole entry): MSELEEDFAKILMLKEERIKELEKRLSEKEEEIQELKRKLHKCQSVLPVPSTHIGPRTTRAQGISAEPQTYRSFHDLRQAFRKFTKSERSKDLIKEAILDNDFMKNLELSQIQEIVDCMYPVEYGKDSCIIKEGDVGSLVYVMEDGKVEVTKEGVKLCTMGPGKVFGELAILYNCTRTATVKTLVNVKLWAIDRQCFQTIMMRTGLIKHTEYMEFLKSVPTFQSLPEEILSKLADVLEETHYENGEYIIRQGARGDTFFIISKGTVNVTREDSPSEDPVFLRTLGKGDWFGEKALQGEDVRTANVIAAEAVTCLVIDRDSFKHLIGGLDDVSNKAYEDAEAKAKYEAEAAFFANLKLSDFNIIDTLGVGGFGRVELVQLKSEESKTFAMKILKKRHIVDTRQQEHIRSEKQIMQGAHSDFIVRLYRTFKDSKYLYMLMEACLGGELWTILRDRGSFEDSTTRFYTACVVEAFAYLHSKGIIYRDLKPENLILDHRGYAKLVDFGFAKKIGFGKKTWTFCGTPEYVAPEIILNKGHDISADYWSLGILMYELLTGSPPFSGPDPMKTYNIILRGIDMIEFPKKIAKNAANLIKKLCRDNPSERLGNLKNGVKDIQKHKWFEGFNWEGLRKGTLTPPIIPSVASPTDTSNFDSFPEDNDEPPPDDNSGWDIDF
In short: as §1

PDGFRα(h) = PDGFRα(h) (Homo sapiens, UniProt P16234)
In short: as §1

FGFR1(V561M)(h) = FGFR1(V561M)(h) (Homo sapiens, UniProt P11362, V561M)
In short: as §1

CDK2/cyclinE(h) = CDK2/cyclinE(h) (Homo sapiens, UniProt P24941)
In short: as §1

CDK9/cyclin T1(h) = CDK9/cyclin T1(h) (Homo sapiens, UniProt P50750)
In short: as §1

PKCι(h) = PKCι(h) (Homo sapiens, UniProt P41743)
In short: as §1

SAPK2b(h) = SAPK2b(h) (Homo sapiens, UniProt Q15759)
In short: as §1

WNK3(h) = WNK3(h) (Homo sapiens, UniProt Q9BYP7)
In short: as §1

[1] = molecular target: PI3 Kinase (p110δ/p85α)(m) (Mus musculus, UniProt O35904)
In short: as §1

Blk(m) = Blk(m) (Mus musculus, UniProt P16277)
In short: as §1

ULK3(h) = ULK3(h) (Homo sapiens, UniProt Q6PHR2)
In short: as §1

ASK1(h) = ASK1(h) (Homo sapiens, UniProt Q99683)
In short: as §1

Abl(m) = Abl(m) (Mus musculus, UniProt P00520)
In short: as §1

MRCKα(h), sequence (Q5VT25 whole entry): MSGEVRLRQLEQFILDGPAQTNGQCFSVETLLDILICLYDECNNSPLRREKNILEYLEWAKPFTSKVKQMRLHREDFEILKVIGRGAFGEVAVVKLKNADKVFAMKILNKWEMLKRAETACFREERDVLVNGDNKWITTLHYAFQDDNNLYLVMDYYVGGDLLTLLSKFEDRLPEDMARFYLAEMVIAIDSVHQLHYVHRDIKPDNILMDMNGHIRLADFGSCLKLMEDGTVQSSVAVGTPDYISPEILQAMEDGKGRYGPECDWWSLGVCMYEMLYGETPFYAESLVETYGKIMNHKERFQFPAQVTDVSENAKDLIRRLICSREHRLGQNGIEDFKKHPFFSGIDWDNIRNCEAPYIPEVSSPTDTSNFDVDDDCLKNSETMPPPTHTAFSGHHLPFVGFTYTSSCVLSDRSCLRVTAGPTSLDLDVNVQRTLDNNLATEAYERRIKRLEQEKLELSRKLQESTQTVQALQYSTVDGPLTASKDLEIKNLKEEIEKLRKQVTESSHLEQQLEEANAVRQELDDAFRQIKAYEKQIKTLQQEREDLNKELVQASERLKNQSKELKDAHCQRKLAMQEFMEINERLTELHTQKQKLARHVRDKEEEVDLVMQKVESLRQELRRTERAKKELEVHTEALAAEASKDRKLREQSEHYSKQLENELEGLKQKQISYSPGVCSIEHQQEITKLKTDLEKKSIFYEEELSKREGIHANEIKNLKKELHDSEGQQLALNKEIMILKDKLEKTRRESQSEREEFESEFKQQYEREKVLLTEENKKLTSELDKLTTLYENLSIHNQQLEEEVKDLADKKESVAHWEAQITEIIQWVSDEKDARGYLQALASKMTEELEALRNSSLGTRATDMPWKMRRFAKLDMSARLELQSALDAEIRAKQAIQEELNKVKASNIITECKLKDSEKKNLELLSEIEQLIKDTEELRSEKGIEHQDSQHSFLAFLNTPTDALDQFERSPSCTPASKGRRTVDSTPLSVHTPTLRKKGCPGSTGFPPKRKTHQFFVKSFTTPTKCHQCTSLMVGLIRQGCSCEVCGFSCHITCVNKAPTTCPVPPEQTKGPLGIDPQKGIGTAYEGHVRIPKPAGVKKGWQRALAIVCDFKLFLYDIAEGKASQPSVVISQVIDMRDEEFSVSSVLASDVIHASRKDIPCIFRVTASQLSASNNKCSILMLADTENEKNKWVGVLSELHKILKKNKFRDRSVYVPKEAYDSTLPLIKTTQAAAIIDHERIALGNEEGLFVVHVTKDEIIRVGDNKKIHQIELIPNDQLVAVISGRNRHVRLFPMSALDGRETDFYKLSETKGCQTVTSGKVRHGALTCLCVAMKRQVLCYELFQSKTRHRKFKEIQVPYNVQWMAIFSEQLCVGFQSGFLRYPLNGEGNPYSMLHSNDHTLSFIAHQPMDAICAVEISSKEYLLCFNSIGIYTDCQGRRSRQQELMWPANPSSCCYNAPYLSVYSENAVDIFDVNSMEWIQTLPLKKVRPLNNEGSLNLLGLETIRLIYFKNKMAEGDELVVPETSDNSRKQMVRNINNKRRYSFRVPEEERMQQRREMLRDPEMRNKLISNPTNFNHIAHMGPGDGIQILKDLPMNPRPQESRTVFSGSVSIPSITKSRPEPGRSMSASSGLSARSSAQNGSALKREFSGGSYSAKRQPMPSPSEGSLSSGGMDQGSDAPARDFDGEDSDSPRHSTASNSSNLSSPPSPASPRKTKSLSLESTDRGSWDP

SMILES	inhibition at 0.1 µM (MRCKα(h)) [%]	inhibition at 0.1 µM (Mer(h)) [%]	inhibition at 0.1 µM (LIMK1(h)) [%]	inhibition at 0.1 µM (PhKγ2(h)) [%]	inhibition at 0.1 µM (Met(D1246H)(h)) [%]	inhibition at 0.1 µM (GRK7(h)) [%]	inhibition at 0.1 µM (PRK2(h)) [%]	inhibition at 0.1 µM (DAPK2(h)) [%]	inhibition at 0.1 µM (PrKX(h)) [%]	inhibition at 0.1 µM (ZIPK(h)) [%]	inhibition at 0.1 µM (PKG1β(h)) [%]	inhibition at 0.1 µM (SGK2(h)) [%]	inhibition at 0.1 µM (PKCγ(h)) [%]	inhibition at 0.1 µM (Fer(h)) [%]	inhibition at 0.1 µM (NEK11(h)) [%]	inhibition at 0.1 µM (Tie2(R849W)(h)) [%]	inhibition at 0.1 µM (Met(Y1248H)(h)) [%]	inhibition at 0.1 µM (SGK3(h)) [%]	inhibition at 0.1 µM (PKG1α(h)) [%]	inhibition at 0.1 µM (PDGFRα(h)) [%]	further results
Cc1cc2c(F)c(Oc3nc(Nc4cc(C5CC5)[nH]n4)cc(N4CCN(C)CC4)n3)ccc2[nH]1 [Compound 10]	2	97	83	2	74	-4	51	-16	13	1	-11	-41	-8	38	-8	88	69	-5	-25	-3	inhibition at 0.1 µM (FGFR1(V561M)(h)): 101%; inhibition at 0.1 µM (CDK2/cyclinE(h)): 1%; inhibition at 0.1 µM (CDK9/cyclin T1(h)): 22%; inhibition at 0.1 µM (PKCι(h)): 0%; inhibition at 0.1 µM (SAPK2b(h)): -2%; inhibition at 0.1 µM (WNK3(h)): 1%; inhibition at 0.1 µM [1]: -19%; inhibition at 0.1 µM (Blk(m)): 84%; inhibition at 0.1 µM (ULK3(h)): 86%; inhibition at 0.1 µM (ASK1(h)): -14%; inhibition at 0.1 µM (Abl(m)): 101%
Cc1cc2c(F)c(Oc3nc(Nc4cc(C5CC5)[nH]n4)cc(N4CCNCC4)n3)ccc2[nH]1 [Compound 11, N-(5-cyclopropyl-1H-pyrazol-3-yl)-2-((4-fluoro-2-methyl-1H-indol-5-yl)oxy)-6-(piperazin-1-yl)pyrimidin-4-amine]	-3	96	90	13	93	0	51	-6	35	7	-2	-12	-5	45	-6	93	91	4	-5	29	inhibition at 0.1 µM (FGFR1(V561M)(h)): 101%; inhibition at 0.1 µM (CDK2/cyclinE(h)): 3%; inhibition at 0.1 µM (CDK9/cyclin T1(h)): 32%; inhibition at 0.1 µM (PKCι(h)): -10%; inhibition at 0.1 µM (SAPK2b(h)): -6%; inhibition at 0.1 µM (WNK3(h)): 8%; inhibition at 0.1 µM [1]: 6%; inhibition at 0.1 µM (Blk(m)): 93%; inhibition at 0.1 µM (ULK3(h)): 84%; inhibition at 0.1 µM (ASK1(h)): -17%; inhibition at 0.1 µM (Abl(m)): 104%
